Like-named read-outs stand apart in the source and are kept apart here.
Assays:
Type in all cases: cell-based
GIP-R = target: T1, GIP-R (Homo sapiens, UniProt P48546); test: HitHunter cAMP assay (GIP-R); details: cAMP; for Emax: read-out: (Emax) GIP-R; for EC50: read-out: EC50 GIP-R/nM
T1 sequence (P48546 22-466): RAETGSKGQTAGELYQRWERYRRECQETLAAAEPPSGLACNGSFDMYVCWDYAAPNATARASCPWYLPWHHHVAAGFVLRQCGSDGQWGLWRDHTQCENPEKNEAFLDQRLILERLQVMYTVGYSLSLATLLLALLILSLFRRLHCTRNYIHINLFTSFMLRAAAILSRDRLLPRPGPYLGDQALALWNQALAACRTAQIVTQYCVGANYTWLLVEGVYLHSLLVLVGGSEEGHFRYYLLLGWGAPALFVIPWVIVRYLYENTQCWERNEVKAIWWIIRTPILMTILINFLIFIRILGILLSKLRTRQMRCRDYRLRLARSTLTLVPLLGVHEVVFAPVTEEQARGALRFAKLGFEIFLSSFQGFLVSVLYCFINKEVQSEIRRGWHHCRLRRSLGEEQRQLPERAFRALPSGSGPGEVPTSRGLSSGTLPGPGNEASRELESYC
In short: (§1)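 Duplicate 22-point, 2-fold agonist titrations applied to receptor-expressing suspension cells in IBMX-containing HBSS; 30 min RT stimulation. Read: luminescent cAMP immunocompetition after O/N dark incubation.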

GLP-1R [1] = target: T2, GLP-1R (Homo sapiens, UniProt P43220); test: PathHunter β-arrestin assay; details: PathHunter β-arrestin assay; read-out: β-arrestin activity EC50
In short: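 Following a 90 min agonist exposure at 37 °C in 0.2% BSA medium, β-arrestin coupling was detected by chemiluminescence after 3 h at room temperature.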

GLP-1R [2] = target: T2, GLP-1R; test: HitHunter cAMP assay (GLP-1R); details: cAMP; for EC50: read-out: EC50 GLP-1R/nM; for Emax: read-out: (Emax) GLP-1R
In short: as §1

T2 sequence (P43220 24-463): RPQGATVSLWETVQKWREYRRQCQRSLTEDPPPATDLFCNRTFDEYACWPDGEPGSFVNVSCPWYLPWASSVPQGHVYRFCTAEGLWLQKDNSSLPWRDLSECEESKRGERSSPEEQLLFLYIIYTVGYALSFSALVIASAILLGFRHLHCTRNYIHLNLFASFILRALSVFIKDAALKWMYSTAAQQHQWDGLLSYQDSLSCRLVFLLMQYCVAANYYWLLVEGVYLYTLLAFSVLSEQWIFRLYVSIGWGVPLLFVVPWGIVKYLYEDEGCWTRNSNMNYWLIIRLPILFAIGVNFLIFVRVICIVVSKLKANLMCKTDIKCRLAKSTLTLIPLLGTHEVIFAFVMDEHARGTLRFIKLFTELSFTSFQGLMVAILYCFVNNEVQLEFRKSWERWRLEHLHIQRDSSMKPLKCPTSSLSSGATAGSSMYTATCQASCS

## CCCCCCCCCCCCCCCC(=O)N[C@@H](CCC(=O)NCCCC[C@H](NC(=O)[C@H](CO)NC(=O)[C@@H]1CCCN1C(=O)[C@@H]1CCCN1C(=O)[C@@H]1CCCN1C(=O)[C@H](C)NC(=O)CNC(=O)[C@H](CO)NC(=O)[C@H](CO)NC(=O)[C@@H]1CCCN1C(=O)CNC(=O)CNC(=O)[C@H](C)NC(=O)[C@H](CC(C)C)NC(=O)[C@H](CC(C)C)NC(=O)[C@H](Cc1c[nH]c2ccccc12)NC(=O)[C@H](CC(N)=O)NC(=O)[C@@H](NC(=O)[C@H](Cc1ccccc1)NC(=O)[C@H](CCC(=O)O)NC(=O)C(C)(C)NC(=O)[C@H](C)NC(=O)[C@H](C)NC(=O)[C@H](CCC(N)=O)NC(=O)[C@H](CCCCN)NC(=O)[C@H](CC(=O)O)NC(=O)[C@H](CC(C)C)NC(=O)[C@H](Cc1ccc(O)cc1)NC(=O)[C@@H](NC(=O)[C@H](CO)NC(=O)[C@H](Cc1ccc(O)cc1)NC(=O)[C@H](CC(=O)O)NC(=O)[C@H](CO)NC(=O)[C@@H](NC(=O)[C@H](Cc1ccccc1)NC(=O)[C@@H](NC(=O)CNC(=O)[C@H](CCC(=O)O)NC(=O)CC(C)(C)C(=O)NCCN1CCCCC1=O)[C@@H](C)O)[C@@H](C)O)[C@@H](C)CC)C(C)C)C(N)=O)C(=O)O [Compound 204]
GIP-R; Table 3A
  Emax: 98%
  EC50: 10 to 100 nM
GLP-1R [1]
  EC50: 0.02 to 1 µM
GLP-1R [2]; Table 3A
  EC50: < 0.1 nM

## CCCCCCCCCCCCCCCC(=O)N[C@@H](CCC(=O)NCCCC[C@H](NC(=O)[C@H](CO)NC(=O)[C@@H]1CCCN1C(=O)[C@@H]1CCCN1C(=O)[C@@H]1CCCN1C(=O)[C@H](C)NC(=O)CNC(=O)[C@H](CO)NC(=O)[C@H](CO)NC(=O)[C@@H]1CCCN1C(=O)CNC(=O)CNC(=O)[C@H](C)NC(=O)[C@H](CC(C)C)NC(=O)[C@H](CC(C)C)NC(=O)[C@H](Cc1c[nH]c2ccccc12)NC(=O)[C@H](CC(N)=O)NC(=O)[C@@H](NC(=O)[C@H](Cc1ccccc1)NC(=O)[C@H](CCC(=O)O)NC(=O)C(C)(C)NC(=O)[C@H](C)NC(=O)[C@H](C)NC(=O)[C@H](CCC(N)=O)NC(=O)[C@H](CCCCN)NC(=O)[C@H](CC(=O)O)NC(=O)[C@H](CC(C)C)NC(=O)[C@H](Cc1ccc(O)cc1)NC(=O)[C@@H](NC(=O)[C@H](CO)NC(=O)[C@H](Cc1ccc(O)cc1)NC(=O)[C@H](CC(=O)O)NC(=O)[C@H](CO)NC(=O)[C@@H](NC(=O)[C@H](Cc1ccccc1)NC(=O)[C@@H](NC(=O)CNC(=O)[C@H](CCC(=O)O)NC(=O)CSCC(=O)NCCN1CCCS1(=O)=O)[C@@H](C)O)[C@@H](C)O)[C@@H](C)CC)C(C)C)C(N)=O)C(=O)O [Compound 42]
GIP-R; Table 3
  Emax: 28 to 46%
  EC50: 0.1 to 10 nM
GIP-R; Table 3A
  Emax: 28 to 46%
  EC50: 0.1 to 100 nM
GLP-1R [1]
  EC50: > 1 µM
GLP-1R [2]; Table 3
  Emax: 102 to 109%
  EC50: < 1 nM
GLP-1R [2]; Table 3A
  Emax: 102 to 109%
  EC50: < 1 nM

## CCCCCCCCCCCCCCCC(=O)N[C@@H](CCC(=O)NCCCC[C@H](NC(=O)[C@H](CO)NC(=O)[C@@H]1CCCN1C(=O)[C@@H]1CCCN1C(=O)[C@@H]1CCCN1C(=O)[C@H](C)NC(=O)CNC(=O)[C@H](CO)NC(=O)[C@H](CO)NC(=O)[C@@H]1CCCN1C(=O)CNC(=O)CNC(=O)[C@H](C)NC(=O)[C@H](CC(C)C)NC(=O)[C@H](CC(C)C)NC(=O)[C@H](Cc1c[nH]c2ccccc12)NC(=O)[C@H](CC(N)=O)NC(=O)[C@@H](NC(=O)[C@H](Cc1ccccc1)NC(=O)[C@H](CCC(=O)O)NC(=O)C(C)(C)NC(=O)[C@H](C)NC(=O)[C@H](C)NC(=O)[C@H](CCC(N)=O)NC(=O)[C@H](CCCCN)NC(=O)[C@H](CC(=O)O)NC(=O)[C@H](CC(C)C)NC(=O)[C@H](Cc1ccc(O)cc1)NC(=O)[C@@H](NC(=O)[C@H](CO)NC(=O)[C@H](Cc1ccc(O)cc1)NC(=O)[C@H](CC(=O)O)NC(=O)[C@H](CO)NC(=O)[C@@H](NC(=O)[C@H](Cc1ccccc1)NC(=O)[C@@H](NC(=O)CNC(=O)[C@H](CCC(=O)O)NC(=O)CSCC(=O)NCCN1CCSC1=O)[C@@H](C)O)[C@@H](C)O)[C@@H](C)CC)C(C)C)C(N)=O)C(=O)O [Compound 86]
GIP-R; Table 3
  Emax: 61%
  EC50: 1 to 10 nM
GIP-R; Table 3A
  Emax: 61%
  EC50: 1 to 10 nM
GLP-1R [1]
  EC50: > 1 µM
GLP-1R [2]; Table 3
  Emax: 110%
  EC50: 0.1 to 1 nM
GLP-1R [2]; Table 3A
  Emax: 110%
  EC50: 0.1 to 1 nM

## CC[C@H](C)[C@H](NC(=O)[C@H](CO)NC(=O)[C@H](Cc1ccc(O)cc1)NC(=O)[C@H](CC(=O)O)NC(=O)[C@H](CO)NC(=O)[C@@H](NC(=O)[C@H](Cc1ccccc1)NC(=O)[C@@H](NC(=O)CNC(=O)[C@H](CCC(=O)O)NC(=O)CCCCNC(=O)CN1C(=O)CSC1=O)[C@@H](C)O)[C@@H](C)O)C(=O)N[C@@H](Cc1ccc(O)cc1)C(=O)N[C@@H](CC(C)C)C(=O)N[C@@H](CC(=O)O)C(=O)N[C@@H](CCCCN)C(=O)N[C@@H](CCC(N)=O)C(=O)N[C@@H](C)C(=O)N[C@@H](C)C(=O)NC(C)(C)C(=O)N[C@@H](CCC(=O)O)C(=O)N[C@@H](Cc1ccccc1)C(=O)N[C@H](C(=O)N[C@@H](CC(N)=O)C(=O)N[C@@H](Cc1c[nH]c2ccccc12)C(=O)N[C@@H](CC(C)C)C(=O)N[C@@H](CC(C)C)C(=O)N[C@@H](C)C(=O)NCC(=O)NCC(=O)N1CCC[C@H]1C(=O)N[C@@H](CO)C(=O)N[C@@H](CO)C(=O)NCC(=O)N[C@@H](C)C(=O)N1CCC[C@H]1C(=O)N1CCC[C@H]1C(=O)N1CCC[C@H]1C(=O)N[C@@H](CO)C(=O)N[C@@H](CCCCN)C(N)=O)C(C)C [Compound 177]
GIP-R; Table 3
  EC50: > 1000 nM
GIP-R; Table 3A
  EC50: > 1000 nM
GIP-R; read-out: (Emax) GIP-R at 1 μM, Table 3, at 1 μM
  Emax at 1 µM: 9%
GLP-1R [1]
  EC50: > 1 µM
GLP-1R [2]; Table 3
  Emax: 96%
  EC50: 1 to 10 nM
GLP-1R [2]; Table 3A
  Emax: 96%
  EC50: 1 to 10 nM

## CC[C@H](C)[C@H](NC(=O)[C@H](CO)NC(=O)[C@H](Cc1ccc(O)cc1)NC(=O)[C@H](CC(=O)O)NC(=O)[C@H](CO)NC(=O)[C@@H](NC(=O)[C@H](Cc1ccccc1)NC(=O)[C@@H](NC(=O)CNC(=O)[C@H](CCC(=O)O)NC(=O)CCCNC(=O)CN1C(=O)CSC1=O)[C@@H](C)O)[C@@H](C)O)C(=O)N[C@@H](Cc1ccc(O)cc1)C(=O)N[C@@H](CC(C)C)C(=O)N[C@@H](CC(=O)O)C(=O)N[C@@H](CCCCN)C(=O)N[C@@H](CCC(N)=O)C(=O)N[C@@H](C)C(=O)N[C@@H](C)C(=O)NC(C)(C)C(=O)N[C@@H](CCC(=O)O)C(=O)N[C@@H](Cc1ccccc1)C(=O)N[C@H](C(=O)N[C@@H](CC(N)=O)C(=O)N[C@@H](Cc1c[nH]c2ccccc12)C(=O)N[C@@H](CC(C)C)C(=O)N[C@@H](CC(C)C)C(=O)N[C@@H](C)C(=O)NCC(=O)NCC(=O)N1CCC[C@H]1C(=O)N[C@@H](CO)C(=O)N[C@@H](CO)C(=O)NCC(=O)N[C@@H](C)C(=O)N1CCC[C@H]1C(=O)N1CCC[C@H]1C(=O)N1CCC[C@H]1C(=O)N[C@@H](CO)C(=O)N[C@@H](CCCCN)C(N)=O)C(C)C [Compound 178]
GIP-R; Table 3
  Emax: 38%
  EC50: 100 to 1000 nM
GIP-R; Table 3A
  Emax: 38%
  EC50: 100 to 1000 nM
GLP-1R [1]
  EC50: > 1 µM
GLP-1R [2]; Table 3
  Emax: 97%
  EC50: 1 to 10 nM
GLP-1R [2]; Table 3A
  Emax: 97%
  EC50: 1 to 10 nM

Reference: patent publication US20260176320A1, “MODULATORS OF G-PROTEIN COUPLED RECEPTORS” (priority 2018, published 2026)
